Twelve compounds from patent US20260022142A1, “MACROCYCLIC IMMUNOMODULATORS” (Bristol-Myers Squibb Company, priority 2022, published 2026) can be followed below.

Numbered stars: 1 amine (or outer) side, 2 acyl side, 3 side chain; on linkers, the order of the positions; unused ones are H or OH. Bridge positions count the residues as written; N and C are the ends. Square brackets hold non-standard residues; d marks the D form. Peptide text beside a SMILES is read from it. * marks the point of attachment. ξ: configuration not given here. X2 = CC(C)C[C@H](N[*:1])C(=O)C[C@H](C(=O)[*:2])C(C)C; Phe(3-CF3) = N[C@@H](Cc1cccc(C(F)(F)F)c1)C(=O)O; Ala(morpholin-4-yl) = N[C@@H](CN1CCOCC1)C(=O)O; Phe(4-COOH) = N[C@@H](Cc1ccc(C(=O)O)cc1)C(=O)O; d(γGlu) = O=C(O)[C@@H](CCC(=O)[*:2])N[*:1]; Bip = N[C@@H](Cc1ccc(-c2ccccc2)cc1)C(=O)O; Phe(3-Me) = Cc1cccc(C[C@H](N)C(=O)O)c1; γGlu = O=C(O)[C@H](CCC(=O)[*:2])N[*:1]; Abu(3S-NH2) = C[C@H](N)[C@H](N)C(=O)O; Ala(4-THP) = N[C@@H](CC1CCOCC1)C(=O)O; NH(CH2)12COOH = O=C(O)CCCCCCCCCCCCN*; Val(3-OH) = CC(C)(O)[C@H](N)C(=O)O; 4Pal = N[C@@H](Cc1ccncc1)C(=O)O; Cha = N[C@@H](CC1CCCCC1)C(=O)O; Cit = NC(=O)NCCC[C@H](N)C(=O)O; Thr(3ξ) = CC(O)[C@H](N)C(=O)O; dOrn = NCCC[C@@H](N)C(=O)O; dDab = NCC[C@@H](N)C(=O)O; Carboxymethyl = O=C(O)C*; Nle = CCCC[C@H](N)C(=O)O; Orn = NCCC[C@H](N)C(=O)O; Aun = NCCCCCCCCCCC(=O)O; Dab = NCC[C@H](N)C(=O)O; Dap = NC[C@H](N)C(=O)O; AEEA = NCCOCCOCC(=O)O

In this test the target is T1, PD-1/PD-L1 interaction (PE-labeled human PD-L1-Ig binding to Jurkat cell line over-expressing human PD-1) (Homo sapiens, UniProt Q15116).
T1 construct: expressed in transfected cells; host or cells: Jurkat
T1 sequence (Q15116 25-288): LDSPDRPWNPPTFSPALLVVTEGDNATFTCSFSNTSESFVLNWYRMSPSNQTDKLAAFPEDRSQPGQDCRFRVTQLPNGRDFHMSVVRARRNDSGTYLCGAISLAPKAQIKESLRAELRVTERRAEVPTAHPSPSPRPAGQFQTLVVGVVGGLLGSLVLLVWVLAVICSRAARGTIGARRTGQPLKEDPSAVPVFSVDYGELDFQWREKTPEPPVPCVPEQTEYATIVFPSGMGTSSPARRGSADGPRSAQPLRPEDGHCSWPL
As to the kind of experiment: Jurkat-PD-1 Cell Binding High-Content Screening Assay (CBA). To be noted: Jurkat cell line over-expressing human PD-1; PE-labeled PD-L1-Ig 20 nM final; read-out: Jurkat hPD1-PDL1 IC50. It counts as cell-based. An outline of the steps:
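Read-out is high-content imaging of cell-bound phycoerythrin-tagged PD-L1-Ig on fixed, Hoechst-counterstained Jurkat cells that over-express human PD-1. Compound exposure lasts 2 h at 37° C before the labeled ligand (20 nM final) is added for a further hour.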
`CCCC[C@@H]1NC(=O)CSC[C@@H](C(=O)N[C@H](CCN)C(=O)NCCOCCOCC(=O)N[C@@H](CCC(=O)NCCOCCOCC(=O)NCCCCCCCCCCCCC(=O)O)C(=O)O)NC(=O)[C@H](CCC(=O)O)NC(=O)[C@H](C(C)C)NC(=O)[C@H](CC2CCCCC2)NC(=O)[C@H](CCN)NC(=O)[C@@H](CC(C)C)NC(=O)[C@H](CCCN)NC(=O)[C@H](Cc2ccc(OCC(=O)O)cc2)NC(=O)[C@H](Cc2ccc(-c3ccccc3)cc2)NC(=O)[C@H](Cc2ccc(C(=O)O)cc2)NC(=O)[C@H](Cc2cccc(C(F)(F)F)c2)NC(=O)[C@H](CC(=O)O)NC(=O)[C@H](Cc2ccc(OCC(=O)O)cc2)NC1=O` [Compound 3897] ({CH2CO}-[Nle]Y(Carboxymethyl)D[Phe(3-CF3)][Phe(4-COOH)][Bip]Y(Carboxymethyl)[Orn][dL][Dab][Cha]VEC[dDab][AEEA][γGlu][AEEA]-{NH(CH2)12COOH}; thioether N-14): the IC50 (in general, the concentration at which inhibition is half-maximal) came to 63.6 nM. Then `Cc1cccc(C[C@@H]2NC(=O)[C@H](CC(=O)O)NC(=O)[C@H](Cc3ccc(OCC(=O)O)cc3)NC(=O)[C@H](C(C)O)NC(=O)CSC[C@@H](C(=O)N[C@H](CC(N)=O)C(=O)NCCCCCCCCCCC(=O)O)NC(=O)[C@H](C(C)O)NC(=O)[C@H](C(C)C)NC(=O)[C@H](CC3CCCCC3)NC(=O)[C@H](CCN)NC(=O)[C@@H](CC(C)C)NC(=O)[C@H](CCCN)NC(=O)[C@H](CCCNC(N)=O)NC(=O)[C@H](Cc3ccc(-c4ccccc4)cc3)NC(=O)[C@H](C(C)C)NC2=O)c1` (stereo partly drawn) [Compound 3444] ({CH2CO}-[Thr(3ξ)]Y(Carboxymethyl)D[Phe(3-Me)]V[Bip][Cit][Orn][dL][Dab][Cha]V[Thr(3ξ)]C[dN][Aun]-OH; thioether N-14), with 13.6 nM; and `Cc1cccc(C[C@@H]2NC(=O)[C@H](CC(=O)O)NC(=O)[C@H](Cc3ccc(OCC(=O)O)cc3)NC(=O)[C@H](CCCNC(=N)N)NC(=O)CSC[C@@H](C(=O)NCCOCCOCC(=O)N[C@H](CCC(=O)NCCCCCCCCCCC(=O)O)C(=O)O)NC(=O)[C@H](C(C)O)NC(=O)[C@H](C(C)C)NC(=O)[C@H](CC3CCCCC3)NC(=O)[C@H](CCN)NC(=O)[C@@H](CC(C)C)NC(=O)[C@H](CCCN)NC(=O)[C@H](CCCNC(N)=O)NC(=O)[C@H](Cc3ccc(-c4ccccc4)cc3)NC(=O)[C@H](C(C)C)NC2=O)c1` (stereo partly drawn) [Compound 3400] ({CH2CO}-RY(Carboxymethyl)D[Phe(3-Me)]V[Bip][Cit][Orn][dL][Dab][Cha]V[Thr(3ξ)]C[AEEA][d(γGlu)][Aun]-OH; thioether N-14), with 8.7 nM; and `Cc1cccc(C[C@@H]2NC(=O)[C@H](CC(=O)O)NC(=O)[C@H](Cc3ccc(OCC(=O)O)cc3)NC(=O)[C@H](CCCNC(=N)N)NC(=O)CSC[C@@H](C(=O)N[C@@H](CCN)C(=O)NCCCCCCCCCCC(=O)O)NC(=O)[C@H]([C@@H](C)O)NC(=O)[C@H](C(C)C)NC(=O)[C@H](CC3CCCCC3)NC(=O)[C@H](CCN)NC(=O)[C@@H](CC(C)C)NC(=O)[C@H](CCCN)NC(=O)[C@H](CCCNC(N)=O)NC(=O)[C@H](Cc3ccc(-c4ccccc4)cc3)NC(=O)[C@H](Cc3ccc(OCC(=O)O)cc3)NC2=O)c1` [Compound 2836] ({CH2CO}-RY(Carboxymethyl)D[Phe(3-Me)]Y(Carboxymethyl)[Bip][Cit][Orn][dL][Dab][Cha]VTC[Dab][Aun]-OH; thioether N-14), with 16.4 nM.

With `Cc1cccc(C[C@@H]2NC(=O)[C@H](CC(=O)O)NC(=O)[C@H](Cc3ccc(OCC(=O)O)cc3)NC(=O)[C@H](CN3CCOCC3)NC(=O)CSC[C@@H](C(=O)N[C@@H](CCN)C(=O)NCCCCCCCCCCC(=O)O)NC(=O)[C@H]([C@@H](C)O)NC(=O)[C@H](C(C)C)NC(=O)[C@H](CC3CCCCC3)NC(=O)[C@H](CCN)NC(=O)[C@@H](CC(C)C)NC(=O)[C@H](CCCN)NC(=O)[C@H](CCCNC(N)=O)NC(=O)[C@H](Cc3ccc(-c4ccccc4)cc3)NC(=O)[C@H](C(C)C)NC2=O)c1` [Compound 2038] ({CH2CO}-[Ala(morpholin-4-yl)]Y(Carboxymethyl)D[Phe(3-Me)]V[Bip][Cit][Orn][dL][Dab][Cha]VTC[Dab][Aun]-OH; thioether N-14), the IC50 stood at 38.7 nM. Then `CC(C)C[C@H]1NC(=O)[C@H](CCCN)NC(=O)[C@H](Cc2ccc(O)cc2)NC(=O)[C@H](Cc2ccc(-c3ccccc3)cc2)NC(=O)[C@H](C(C)C)NC(=O)[C@H](Cc2c[nH]c3ccccc23)NC(=O)[C@H](CC(=O)O)NC(=O)[C@H](Cc2ccc(OCC(=O)O)cc2)NC(=O)[C@H](C(C)O)NC(=O)CSC[C@@H](C(=O)N[C@@H](CCN)C(=O)NCCCCCCCCCCC(=O)O)NC(=O)[C@H](CC2CCOCC2)NC(=O)[C@H](C(C)C)NC(=O)[C@H](CC2CCCCC2)NC(=O)[C@H](CCN)NC1=O` (stereo partly drawn) [Compound 3424] ({CH2CO}-[Thr(3ξ)]Y(Carboxymethyl)DWV[Bip]Y[Orn][dL][Dab][Cha]V[Ala(4-THP)]C[Dab][Aun]-OH; thioether N-14), with 133 nM. To `Cc1cccc(C[C@@H]2NC(=O)[C@H](CC(=O)O)NC(=O)[C@H](Cc3ccc(OCC(=O)O)cc3)NC(=O)[C@H](CCCNC(=N)N)NC(=O)CSC[C@@H](C(=O)NCCOCCOCC(=O)NCCCCCCCCCCC(=O)O)NC(=O)[C@H](C(C)O)NC(=O)[C@H](C(C)C)NC(=O)[C@H](CC3CCCCC3)NC(=O)[C@H](CCN)NC(=O)[C@@H](CC(C)C)NC(=O)[C@H](CCCNC(N)=O)NC(=O)[C@H](Cc3ccc(OCC(=O)O)cc3)NC(=O)[C@H](Cc3ccc(-c4ccccc4)cc3)NC(=O)[C@H](C(C)C)NC2=O)c1` (stereo partly drawn) [Compound 3480] ({CH2CO}-RY(Carboxymethyl)D[Phe(3-Me)]V[Bip]Y(Carboxymethyl)[Cit][dL][Dab][Cha]V[Thr(3ξ)]C[AEEA][Aun]-OH; thioether N-14) belongs 17.5 nM; to `Cc1cccc(C[C@@H]2NC(=O)[C@H](CC(=O)O)NC(=O)[C@H](Cc3ccc(OCC(=O)O)cc3)NC(=O)[C@H](CN)NC(=O)CSC[C@@H](C(=O)N[C@@H](CCN)C(=O)NCCCCCCCCCCC(=O)O)NC(=O)[C@H]([C@@H](C)O)NC(=O)[C@H](C(C)C)NC(=O)[C@H](CC3CCCCC3)NC(=O)[C@H](CCN)NC(=O)[C@@H](CC(C)C)NC(=O)[C@H](CCCN)NC(=O)[C@H](CCC(N)=O)NC(=O)[C@H](Cc3ccc(-c4ccccc4)cc3)NC(=O)[C@H](C(C)C)NC2=O)c1` [Compound 2847] ({CH2CO}-[Dap]Y(Carboxymethyl)D[Phe(3-Me)]V[Bip]Q[Orn][dL][Dab][Cha]VTC[Dab][Aun]-OH; thioether N-14), 20.5 nM. To `Cc1cccc(C[C@@H]2NC(=O)[C@H](CC(=O)O)NC(=O)[C@H](Cc3ccc(C(=O)O)cc3)NC(=O)[C@H](Cc3ccc(OCC(=O)O)cc3)NC(=O)CSC[C@@H](C(=O)N[C@@H](CCN)C(=O)NCCCCCCCCCCC(=O)O)NC(=O)[C@H](C(C)O)NC(=O)[C@H](C(C)C)NC(=O)[C@H](CC3CCCCC3)NC(=O)[C@H](CCN)NC(=O)[C@@H](CC(C)C)NC(=O)[C@H](CCCN)NC(=O)[C@H](CCCNC(N)=O)NC(=O)[C@H](Cc3ccc(-c4ccccc4)cc3)NC(=O)[C@H](CC(C)C)NC2=O)c1` (stereo partly drawn) [Compound 3463] ({CH2CO}-Y(Carboxymethyl)[Phe(4-COOH)]D[Phe(3-Me)]L[Bip][Cit][Orn][dL][Dab][Cha]V[Thr(3ξ)]C[Dab][Aun]-OH; thioether N-14) belongs 31.3 nM. `CC(C)C[C@H]1NC(=O)[C@H](CCCN)NC(=O)[C@H](C(C)C)NC(=O)[C@H](Cc2ccc(-c3ccccc3)cc2)NC(=O)[C@H](C(C)C)NC(=O)[C@H](Cc2c[nH]c3ccccc23)NC(=O)[C@H](CC(=O)O)NC(=O)[C@H](Cc2ccc(OCC(=O)O)cc2)NC(=O)[C@H](C(C)O)NC(=O)CSC[C@@H](C(=O)N[C@@H](CCN)C(=O)NCCCCCCCCCCC(=O)O)NC(=O)[C@H](CN)NC(=O)[C@H](C(C)O)NC(=O)[C@H](CC2CCCCC2)NC(=O)[C@H](CCN)NC1=O` (stereo partly drawn) [Compound 3661] ({CH2CO}-[Thr(3ξ)]Y(Carboxymethyl)DWV[Bip]V[Orn][dL][Dab][Cha][Thr(3ξ)][Dap]C[Dab][Aun]-OH; thioether N-14): the IC50 was 35.8 nM. To `Cc1cccc(C[C@@H]2NC(=O)[C@H](CC(=O)O)NC(=O)[C@H](Cc3ccc(OCC(=O)O)cc3)NC(=O)[C@H](Cc3ccncc3)NC(=O)CSC[C@@H](C(=O)N[C@@H](CCN)C(=O)NCCCCCCCCCCC(=O)O)NC(=O)[C@H]([C@H](C)N)NC(=O)[C@H](C(C)(C)O)NC(=O)[C@H](CC3CCCCC3)NC(=O)[C@H](CCN)NC(=O)[C@@H](CC(C)C)NC(=O)[C@H](CCCN)NC(=O)[C@H](Cc3ccc(OCC(=O)O)cc3)NC(=O)[C@H](Cc3ccc(-c4ccccc4)cc3)NC(=O)[C@H](Cc3ccc(OCC(=O)O)cc3)NC2=O)c1` [Compound 2142] ({CH2CO}-[4Pal]Y(Carboxymethyl)D[Phe(3-Me)]Y(Carboxymethyl)[Bip]Y(Carboxymethyl)[Orn][dL][Dab][Cha][Val(3-OH)][Abu(3S-NH2)]C[Dab][Aun]-OH; thioether N-14) belongs 9.1 nM; to `CC(C)C[C@@H]1NC(=O)[C@H](CCN)NC(=O)[C@@H](CC(C)C)NC(=O)[C@H](CCN)NC(=O)[C@H](C(C)C)NC(=O)[C@H](Cc2ccc(-c3ccccc3)cc2)NC(=O)[C@H](CC(C)C)NC(=O)[C@H](Cc2c[nH]c3ccccc23)NC(=O)[C@H](CC(=O)O)NC(=O)[C@H](Cc2ccc(OCC(=O)O)cc2)NC(=O)[C@H](Cc2ccc(OCC(=O)O)cc2)NC(=O)CSC[C@@H](C(=O)N[C@H](CCCN)C(=O)NCCOCCOCC(=O)NCCCCCCCCCCC(=O)O)NC(=O)[C@H](CO)NC(=O)[C@H](C(C)C)CC1=O` [Compound 3073] ({CH2CO}-Y(Carboxymethyl)Y(Carboxymethyl)DWL[Bip]V[Dab][dL][Dab][X2]SC[dOrn][AEEA][Aun]-OH; thioether N-13), 17.2 nM.
